Data from patent US10870662B2, “Alpha-amino pateamine A derivatives and methods for treating chronic lymphocytic leukemia” (The Texas A&M University System, priority 2015, dated 2020).
Where two headings read alike, the source gives them in different places.

How the values were obtained:
[1] = system: P388 murine leukemia cells; conditions: read-out: IC50, cytotoxic activity against P388 murine leukemia cells; cited from earlier work
[2] = system: chronic lymphocytic leukemia (CLL) cells; test: CLL cell killing assay (annexin V / propidium iodide flow cytometry, 24 h); type: cell-based, human; conditions: primary CLL cells
Procedure: Biological Activity of 2-Amino Pateamine Derivatives Peripheral blood from the CLL patients were collected in heparin vacutainer tubes and centrifuged at 1500 rpm for 15 min to separate the plasma. The plasma (upper layer) was removed and saved for cell culture. The lower layer was diluted with phosphate-buffered saline (PBS), and the mononuclear cells were isolated by Ficoll density-gradient centrifugation. The isolated CLL cells were cultured at 1×10^7 cells/mL in RPMI 1640 medium containing 10% of fetal bovine serum, 10% autologous plasma, or 50% autologous plasma. Cell death in CLL lymphocytes was evaluated by flow cytometry analysis using annexin V and propidium iodide (PI) double staining. After incubation with increasing concentrations of PatA analogs for 24 hours, CLL cells (1×10^6 cells) were stained in 100 μL binding buffer with 5 μL annexin-Cy5, and incubated for 15 minutes in dark at room temperature. After staining, 300 μL binding buffer with 5 μL of 50 μg/mL propidium iodide were added to each tube. Samples were analyzed immediately by flow cytometer. Cells stained positive for either annexin V or PI were considered dead cells. The IC50 values of CLL killing were determined by non-linear fitting of the survival curve by the GraphPad Prism software.

[3] = Plasma protein binding (PPB) assay; type: in vitro ADME; conditions: preliminary data
Procedure: In this example, a representative plasma protein binding (PPB) assay used to provide the plasma protein binding data is described.
The assay includes the following steps.
1. Frozen plasma was thawed and centrifuged at 1120 g for 10 min to remove any particulates. The plasma was decanted, the pH was measured and, if required, was adjusted to pH7.4 with lactic acid.
2. All compounds were prepared at 10 mM concentration in DMSO. The solutions were carefully vortexed to ensure the compounds dissolved. The 10 mM DMSO solutions were diluted to 500 μM MeOH solutions (5+95 μl).
3. In a 2 mL 96-well plate (DWP), 1000 μL of plasma was pipetted into each well in Columns 1-4.
4. 10 μL of the 500 μM compound solution was pipetted to 1000 μL of corresponding plasma. (The final DMSO=0.05%). The solution was capped and carefully vortexed for 5 min.
5. 200 μL of PBS buffer was added to each receiver well of the dialysis plate (buffer was added to the Receiver first).
6. The bottom of dialysis plate was capped and turned over to the orange donor side (top) of dialysis plate.
7. The orange donor side of the dialysis plate was uncapped and 200 μL of the […] drug/plasma samples were transferred from the 2 ml 96-DWP to the corresponding donor wells in the dialysis plate. […]
23. The samples in the Receiver Plate, Donor Plate, and Recovery Plate were analyzed by LC/MS/MS […]

[4] = system: models of human leukemia and melanoma; conditions: mice; cited from earlier work
[5] = CLL cell, RPMI 1640 with 10% autologous (human) plasma, read-out: IC50 CLL Assay, 10% plasma
[6] = CLL cell, RPMI 1640 with 50% autologous (human) plasma, read-out: IC50 CLL Assay, 50% plasma
[7] = Homo sapiens, CLL cell, RPMI 1640 with 10% fetal bovine serum, read-out: IC50 CLL Assay, 10% FBS
[8] = RPMI 1640 with 10% autologous (human) plasma, read-out: IC50 CLL Assay, 10% plasma
[9] = RPMI 1640 with 10% fetal bovine serum, read-out: IC50 CLL Assay, 10% FBS

Compound | IC50 [2, 5] [nM] | IC50 [2, 6] [nM] | IC50 [2, 7] [nM] | further results
CC(/C=C/C(C)=C/[C@@H]1Cc2nc(cs2)[C@@H](C)C[C@@H](N)CC(=O)O[C@@H](C)C/C(C)=C/C=C\C(=O)O1)=C\CN(C)C [PatA, Pateamine A] | 160 | 470 | 150 | IC50 [1]: 0.27 nM
CC(C=CC(C)=CC1Cc2nc(cs2)CCCC(NC(=O)OC(C)(C)C(Cl)(Cl)Cl)C(=O)OC(C)CC(C)=CC=CC(=O)O1)=CCN(C)C [MZ576, 1,1,1-Trichloro-2-methylpropan-2-yl((1^2Z,3S,6Z,8E,11 S,14S)-3-((1E,3E,5E)-7-(dimethylamino)-2,5-dimethylhepta-1,3,5-trien-1-yl)-9,11-dimethyl-5,13-dioxo-4,12-dioxa-1 (2,4)-thiazolacycloheptadecaphane-6,8-dien-14-yl)carbamate] |  |  |  | IC50 [2, 8]: 6690 nM; IC50 [2, 9]: 3200 nM
CC(Br)=CC1Cc2nc(cs2)CCCC(NC(=O)OC(C)(C)C(Cl)(Cl)Cl)C(=O)OC(C)CC(C)=CC=CC(=O)O1 [MZ569a, 1,1,1-Trichloro-2-methylpropan-2-yl ((1^2Z,3S,6Z,8E,11S,14S)-3-((E)-2-bromoprop-1-en-1-yl)-9,11-dimethyl-5,13-dioxo-4,12-dioxa-1(2,4)-thiazolacycloheptadecaphane-6,8-dien-1^4-yl) carbamate] |  |  |  | IC50 [2, 8]: > 10000 nM; IC50 [2, 9]: > 10000 nM
CC(/C=C/C(C)=C/[C@@H]1Cc2nc(cs2)CCC[C@H](NC(=O)C(F)(F)F)C(=O)O[C@@H](C)C/C(C)=C/C=C\C(=O)O1)=C\CN(C)C [MZ579, N-((1^2Z,3S,6Z,8E,11S,14S)-3-((1E,3E,5E)-7-(dimethylamino)-2,5-dimethylhepta-1,3,5-trien-1-yl)-9,11-dimethyl-5,13-dioxo-4,12-dioxa-1(2,4)-thiazolacycloheptadecaphane-6,8-dien-14-yl)-2,2,2-trifluoroacetamide] | 1790 | 7180 | 550 | 
CC(/C=C/C(C)=C/[C@@H]1Cc2nc(cs2)CCCCC(=O)O[C@@H](C)C/C(C)=C/C=C\C(=O)O1)=C\CN(C)C [DMDA Pat A, Des-methyl, des-amino pateamine A, reference compound] | 5370 | > 10000 | 710 | plasma protein binding in human plasma [3]: highly protein bound; activity in xenograft models [4]: significant tumor reduction
CC(/C=C/C(C)=C/[C@@H]1Cc2nc(cs2)CCC[C@H](N)C(=O)O[C@@H](C)C/C(C)=C/C=C\C(=O)O1)=C\CN(C)C [MZ577, (12Z,3S,6Z,8E,11S,14S)-14-Amino-3-((1E,3E,5E)-7-(dimethylamino)-2,5-dimethylhepta-1,3,5-trien-1-yl)-9,11-dimethyl-4,12-dioxa-1(2,4)-thiazolacycloheptadecaphane-6,8-diene-5,13-dione] | 6360 |  | 3010 | 
1,1,1-Trichloro-2-methylpropan-2-yl ((1^2Z,3S,6Z,8E,11S,14R)-3-((1E,3E,5E)-7-(dimethylamino)-2,5-dimethylhepta-1,3,5-trien-1-yl)-9,11-dimethyl-5,13-dioxo-4,12-dioxa-1 (2,4)-thiazol acycloheptadecaphane-6,8-dien-14-yl)carbamate [MZ756] |  |  |  | IC50 [2, 8]: 5610 nM; IC50 [2, 9]: 1890 nM
CC(=O)N[C@H]1CCCc2csc(n2)C[C@@H](/C=C(C)/C=C/C(C)=C/CN(C)C)OC(=O)/C=C\C=C(/C)C[C@H](C)OC1=O [MZ623, N-((1^2Z,3S,6Z,8E,11S,14S)-3-((1E,3E,5E)-7-(dimethylamino)-2,5-dimethylhepta-1,3,5-trien-1-yl)-9,11-dimethyl-5,13-dioxo-4,12-dioxa-1(2,4)-thiazolacycloheptadecaphane-6,8-dien-14-yl) acetamide] | 460 |  | 310 | 
CC(/C=C/C(C)=C/[C@@H]1Cc2nc(cs2)CCC[C@H](NS(C)(=O)=O)C(=O)O[C@@H](C)C/C(C)=C/C=C\C(=O)O1)=C\CN(C)C [MZ624, N-((1^2Z,3S,6Z,8E,11 S,14S)-3-((1E,3E,5E)-7-(dimethylamino)-2,5-dimethylhepta-1,3,5-trien-1-yl)-9,11-dimethyl-5,13-dioxo-4,12-dioxa-1(2,4)-thiazolacycloheptadecaphane-6,8-dien-14-yl) methanesulfonamide] | 650 |  | 370 | 
C/C(Br)=C\[C@@H]1Cc2nc(cs2)CCC[C@H](NC(=O)OC(C)(C)C)C(=O)O[C@@H](C)C/C(C)=C/C=C\C(=O)O1 [MZ554, tert-Butyl-((1^2Z,3S,6Z,8E,11S,14S)-3-((E)-2-bromoprop-1-en-1-yl)-9,11-dimethyl-5,13-dioxo-4,12-dioxa-1(2,4)-thiazolacycloheptadecaphane-6,8-dien-14-yl)carbamate] | > 10000 |  | > 10000 | 
CC(=O)N[C@@H]1CCCc2csc(n2)C[C@@H](/C=C(C)/C=C/C(C)=C/CN(C)C)OC(=O)/C=C\C=C(/C)C[C@H](C)OC1=O [MZ757, N-((1^2Z,3S,6Z,8E,11S,14R)-3-((1E,3E,5E)-7-(dimethylamino)-2,5-dimethylhepta-1,3,5-trien-1-yl)-9,11-dimethyl-5,13-dioxo-4,12-dioxa-1(2,4)-thiazolacycloheptadecaphane-6,8-dien-14-yl) acetamide] | 450 |  | < 50 | 
C/C(Br)=C\[C@@H]1Cc2nc(cs2)CCC[C@H](NC(=O)C(F)(F)F)C(=O)O[C@@H](C)C/C(C)=C/C=C\C(=O)O1 [MZ569b, N-((1^2Z,3S,6Z,8E,11S,14S)-3-((E)-2-Bromoprop-1-en-1-yl)-9,11-dimethyl-5,13-dioxo-4,12-dioxa-1 (2,4)-thiazolacycloheptadecaphane-6,8-dien-1^4-yl)-2,2,2-trifluoroacetamide] | > 10000 |  | > 10000 | 
CC(/C=C/C(C)=C/[C@@H]1Cc2nc(cs2)CCC[C@H](NC(=O)OC(C)(C)C)C(=O)O[C@@H](C)C/C(C)=C/C=C\C(=O)O1)=C\CN(C)C [MZ578, tert-Butyl ((1^2Z,3S,6Z,8E,11S,14S)-3-((1E,3E,5E)-7-(dimethylamino)-2,5-dimethylhepta-1,3,5-trien-1-yl)-9,11-dimethyl-5,13-dioxo-4,12-dioxa-1(2,4)-thiazolacycloheptadecaphane-6,8-dien-14-yl) carbamate] | 2010 | 8120 | 830 | 
